# From patent publication US12643881B2, “Bicyclic amine CDK12 inhibitors” (Incyte Corporation, priority 2021, dated 2026)
# Biological target: T1, CDK12 complexed with Cyclin K (Homo sapiens, UniProt Q9NYV4)
# T1 construct: GST (N)
# Assay: CDK Enzymatic Assays (HTRF, LANCE Ultra kinase assay), Example A1
# Format: biochemical
# Settings: enzyme pre-incubated with compounds for 60 minutes prior to addition of ATP (1 mM final) and Ulight-peptide; reaction 60-90 minutes at room temperature
# In short: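 N-terminal GST-tagged human CDK12 co-expressed with full-length Cyclin K (baculovirus), pre-incubated with compound 60 min, then 1 mM ATP and 50 nM ULight-4E-BP1 peptide added in HEPES pH 7.5 buffer; 60-90 min at room temperature. EDTA/Eu-antibody stop, HTRF 665/620 ratio normalized to controls; IC50 from 3- or 4-parameter fit.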
# T1 sequence (Q9NYV4 whole entry): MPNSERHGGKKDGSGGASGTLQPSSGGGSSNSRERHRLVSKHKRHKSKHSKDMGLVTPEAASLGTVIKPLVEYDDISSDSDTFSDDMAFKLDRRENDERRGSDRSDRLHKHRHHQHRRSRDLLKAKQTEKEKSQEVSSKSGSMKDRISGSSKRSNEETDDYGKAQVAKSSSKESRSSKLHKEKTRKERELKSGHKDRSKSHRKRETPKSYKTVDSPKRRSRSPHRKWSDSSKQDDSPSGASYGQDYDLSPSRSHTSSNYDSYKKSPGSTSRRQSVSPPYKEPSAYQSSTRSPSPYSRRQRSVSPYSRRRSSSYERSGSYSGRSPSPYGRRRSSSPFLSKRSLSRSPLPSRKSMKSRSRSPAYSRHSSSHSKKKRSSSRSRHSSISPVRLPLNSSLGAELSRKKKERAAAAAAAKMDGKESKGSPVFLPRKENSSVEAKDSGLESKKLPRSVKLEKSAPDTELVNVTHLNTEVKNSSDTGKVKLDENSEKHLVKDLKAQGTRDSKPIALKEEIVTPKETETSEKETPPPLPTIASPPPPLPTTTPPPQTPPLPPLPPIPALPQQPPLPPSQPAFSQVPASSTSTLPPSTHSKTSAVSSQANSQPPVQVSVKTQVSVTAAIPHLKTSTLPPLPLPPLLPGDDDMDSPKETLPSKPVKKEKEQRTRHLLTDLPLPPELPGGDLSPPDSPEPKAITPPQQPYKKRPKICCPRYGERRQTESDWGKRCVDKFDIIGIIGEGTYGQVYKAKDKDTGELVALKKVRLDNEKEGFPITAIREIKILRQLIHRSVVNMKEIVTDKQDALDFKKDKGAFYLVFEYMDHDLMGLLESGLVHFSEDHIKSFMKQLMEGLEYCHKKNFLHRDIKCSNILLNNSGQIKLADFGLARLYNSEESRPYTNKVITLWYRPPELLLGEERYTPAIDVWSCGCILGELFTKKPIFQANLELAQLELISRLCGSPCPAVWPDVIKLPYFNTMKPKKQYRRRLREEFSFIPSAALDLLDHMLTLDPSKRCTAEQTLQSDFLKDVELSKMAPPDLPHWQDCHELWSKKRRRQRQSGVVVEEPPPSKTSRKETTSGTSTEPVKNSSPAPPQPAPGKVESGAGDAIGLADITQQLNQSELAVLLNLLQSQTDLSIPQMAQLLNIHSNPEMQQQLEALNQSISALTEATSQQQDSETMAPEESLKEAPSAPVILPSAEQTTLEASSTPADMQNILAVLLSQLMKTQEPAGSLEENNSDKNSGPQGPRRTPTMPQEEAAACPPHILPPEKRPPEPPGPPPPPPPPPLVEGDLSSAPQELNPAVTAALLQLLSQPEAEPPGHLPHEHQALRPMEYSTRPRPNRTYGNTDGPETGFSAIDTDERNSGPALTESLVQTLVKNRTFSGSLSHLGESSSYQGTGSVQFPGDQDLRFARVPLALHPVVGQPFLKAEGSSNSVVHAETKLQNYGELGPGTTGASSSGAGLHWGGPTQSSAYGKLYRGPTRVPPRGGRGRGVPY
# T1 sequence (O75909 whole entry partner): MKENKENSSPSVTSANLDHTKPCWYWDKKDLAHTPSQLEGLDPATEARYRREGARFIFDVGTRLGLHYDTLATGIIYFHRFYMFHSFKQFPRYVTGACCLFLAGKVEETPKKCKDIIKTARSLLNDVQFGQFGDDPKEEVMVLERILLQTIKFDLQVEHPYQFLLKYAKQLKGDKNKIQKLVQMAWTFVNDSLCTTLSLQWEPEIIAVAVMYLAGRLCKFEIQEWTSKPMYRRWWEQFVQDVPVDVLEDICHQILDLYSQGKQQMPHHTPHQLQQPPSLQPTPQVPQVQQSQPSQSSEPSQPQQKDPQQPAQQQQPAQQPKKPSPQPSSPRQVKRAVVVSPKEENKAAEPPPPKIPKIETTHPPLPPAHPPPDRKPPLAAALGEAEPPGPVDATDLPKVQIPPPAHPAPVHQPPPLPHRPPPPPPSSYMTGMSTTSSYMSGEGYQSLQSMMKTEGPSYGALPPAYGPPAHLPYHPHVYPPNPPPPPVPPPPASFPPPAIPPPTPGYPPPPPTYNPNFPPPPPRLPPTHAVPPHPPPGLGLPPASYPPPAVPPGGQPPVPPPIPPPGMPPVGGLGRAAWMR
row,Structure (SMILES),IC50 [nM]
1,"C=CC(=O)Nc1cc2nc(N3C[C@H](F)C[C@@H](Nc4ncc(C(F)(F)F)cn4)C3)n(C)c2cc1C1CC1 [Example 95, N-(6-Cyclopropyl-2-((3R,5R)-3-fluoro-5-((5-(trifluoromethyl)pyrimidin-2-yl)amino)piperidin-1-yl)-1-methyl-1H-benzo[d]imidazol-5-yl)acrylamide]",< 50
2,"C=CC(=O)Nc1cccc2c1cnn2[C@H]1CCC[C@@H](Nc2ncc(C#N)c(OC)n2)C1 [Example 24, N-(1-((1S,3R)-3-((5-Cyano-4-methoxypyrimidin-2-yl)amino)cyclohexyl)-1H-indazol-4-yl)acrylamide]",< 50
3,"C=CC(=O)Nc1ccc2c(c1)C(=O)N([C@H]1CCC[C@@H](Nc3ncc(OC(F)F)cn3)C1)C2 [Example 6, N-(2-((1S,3R)-3-((5-(Difluoromethoxy)pyrimidin-2-yl)amino)cyclohexyl)-3-oxoisoindolin-5-yl)acrylamide]",< 50
4,"C=CC(=O)Nc1ccc2c(c1)nc([C@H]1CCC[C@@H](Nc3ncc(C#N)c(OC)n3)C1)n2CCO [Example 47, N-(2-((1S,3R)-3-((5-Cyano-4-methoxypyrimidin-2-yl)amino)cyclohexyl)-1-(2-hydroxyethyl)-1H-benzo[d]imidazol-5-yl)acrylamide]",< 50
5,"C=CC(=O)Nc1cc2nc(N3CC[C@H](F)[C@@H](Nc4ncc(C(F)(F)F)cn4)C3)n(C)c2cc1C [Example 99, N-(2-((3S,4S)-4-Fluoro-3-((5-(trifluoromethyl)pyrimidin-2-yl)amino)piperidin-1-yl)-1,6-dimethyl-1H-benzo[d]imidazol-5-yl)acrylamide]",< 50
6,"COc1nc(N[C@@H]2CCC[C@H](N3Cc4ccc(NC(=O)CCl)cc4C3=O)C2)ncc1C#N [Example 59, 2-Chloro-N-(2-((1S,3R)-3-((5-cyano-4-methoxypyrimidin-2-yl)amino)cyclohexyl)-3-oxoisoindolin-5-yl)acetamide]",< 50
7,"COc1nc(N[C@@H]2CCC[C@H](c3nc4cc(NC(=O)C(C)Br)ccc4n3C)C2)ncc1C#N (stereo partly drawn) [Example 52, 2-Bromo-N-(2-((1S,3R)-3-((5-cyano-4-methoxypyrimidin-2-yl)amino)cyclohexyl)-1-methyl-1H-benzo[d]imidazol-5-yl)propanamide]",< 50
8,"C=CC(=O)Nc1cnc2c(N3CCC[C@@H](Nc4ncc(C#N)c(OC)n4)C3)nccn12 [Example 34, (R)—N-(8-(3-((5-Cyano-4-methoxypyrimidin-2-yl)amino)piperidin-1-yl)imidazo[1,2-a]pyrazin-3-yl)acrylamide]",< 50
9,"C=CC(=O)Nc1c(C)nc2c(N3CCC[C@@H](Nc4ncc(C#N)c(OC)n4)C3)nccn12 [Example 14, (R)—N-(8-(3-((5-Cyano-4-methoxypyrimidin-2-yl)amino)piperidin-1-yl)-2-methylimidazo[1,2-a]pyrazin-3-yl)acrylamide]",< 50
10,"C=CC(=O)Nc1ccc2c(c1)nc([C@H]1CCC[C@@H](Nc3ncc(C#N)c(OC)n3)C1)n2C [Example 73, N-(2-((1S,3R)-3-((5-Cyano-4-methoxypyrimidin-2-yl)amino)cyclohexyl)-1-methyl-1H-benzo[d]imidazol-5-yl)acrylamide]",< 50
11,"C=CC(=O)Nc1nc2c(N3CC[C@@H](Nc4ncc(C#N)c(OC)n4)C3)nccn2n1 [Example 3, (R)—N-(8-(3-((5-Cyano-4-methoxypyrimidin-2-yl)amino)pyrrolidin-1-yl)-[1,2,4]triazolo[1,5-a]pyrazin-2-yl)acrylamide]",< 50
12,"C=CC(=O)Nc1ccc2c(c1)C(=O)N([C@H]1CCC[C@@H](Nc3ccc(C#N)c(C)n3)C1)C2 [Example 15, N-(2-((1S,3R)-3-((5-Cyano-6-methylpyridin-2-yl)amino)cyclohexyl)-3-oxoisoindolin-5-yl)acrylamide]",> 500
13,"C=CC(=O)Nc1ccc2c(c1)C(=O)N([C@H]1CCC[C@@H](Nc3ncc(C(F)(F)F)c(N4CC[C@@H](N(C)C)C4)n3)C1)C2 [Example 62, N-(2-((1S,3R)-3-((4-((R)-3-(Dimethylamino)pyrrolidin-1-yl)-5-(trifluoromethyl)pyrimidin-2-yl)amino)cyclohexyl)-3-oxoisoindolin-5-yl)acrylamide]",< 50
14,"C=CC(=O)Nc1nn(C)c2cc(N3CCC[C@@H](Nc4ncc(C#N)c(OC)n4)C3)ncc12 [Example 1, (R)—N-(6-(3-((5-Cyano-4-methoxypyrimidin-2-yl)amino)piperidin-1-yl)-1-methyl-1H-pyrazolo[4,3-c]pyridin-3-yl)acrylamide]",< 50
15,"C=CC(=O)Nc1nn(C)c2c(N3CC[C@@H](Nc4ncc(C#N)cn4)C3)cccc12 [Example 20, (R)—N-(7-(3-((5-Cyanopyrimidin-2-yl)amino)pyrrolidin-1-yl)-1-methyl-1H-indazol-3-yl)acrylamide]",50 to 500
16,"C=CC(=O)Nc1ccc2nc(N3CC[C@@H](Nc4ncc(C#N)c(OC)n4)C3)nn2c1 [Example 45, (R)—N-(2-(3-((5-Cyano-4-methoxypyrimidin-2-yl)amino)pyrrolidin-1-yl)-[1,2,4]triazolo[1,5-a]pyridin-6-yl)acrylamide]",< 50
17,"C#Cc1cnc(N[C@@H]2CCC[C@H](N3Cc4ccc(NC(=O)C=C)cc4C3=O)C2)nc1 [Example 17, N-(2-((1S,3R)-3-((5-Ethynylpyrimidin-2-yl)amino)cyclohexyl)-3-oxoisoindolin-5-yl)acrylamide]",< 50
18,"C=CC(=O)Nc1nn(C)c2cc(N3CC[C@@H](Nc4ncc(C#N)c(OC)n4)C3)ccc12 [Example 21, (R)—N-(6-(3-((5-Cyano-4-methoxypyrimidin-2-yl)amino)pyrrolidin-1-yl)-1-methyl-1H-indazol-3-yl)acrylamide]",50 to 500
19,"C=CC(=O)Nc1ccc2sc(N3CC[C@@H](Nc4ncc(C#N)c(OC)n4)C3)nc2c1 [Example 41, (R)—N-(2-(3-((5-Cyano-4-methoxypyrimidin-2-yl)amino)pyrrolidin-1-yl)benzo[d]thiazol-5-yl)acrylamide]",< 50
20,"COc1nc(N[C@@H]2CCC[C@H](N3Cc4ccc(NC(=O)/C=C/CF)cc4C3=O)C2)ncc1C#N [Example 57, (E)-N-(2-((1S,3R)-3-((5-Cyano-4-methoxypyrimidin-2-yl)amino)cyclohexyl)-3-oxoisoindolin-5-yl)-4-fluorobut-2-enamide]",50 to 500

# Biological target: T1, CDK12 complexed with Cyclin K
# Assay: Alternative CDK Enzymatic Assays (HTRF, pre-incubation with compounds and 1 mM ATP), Example A2
# Format: biochemical
# Settings: enzyme pre-incubated with compounds and 1 mM ATP for 60 minutes; reaction 120 minutes at 25° C.
# Source text: Example A2. Alternative CDK Enzymatic Assays
# The following activity of the CDK enzymes in complex with their respective cyclins we assayed: CDK1 complexed with Cyclin B1; CDK2 complexed with Cyclin E1; CDK4 complexed with Cyclin D1; CDK6 complexed with Cyclin D1; CDK6 complexed with Cyclin D3; CDK9 complexed with Cyclin T1; CDK7 complexed with Cyclin H/MAT1; CDK2 complexed with Cyclin A2; CDK5 complexed with p35; CDK12 complexed with Cyclin K; CDK13 complexed with Cyclin K. These in vitro enzyme activity are assayed using homogeneous time-resolved energy transfer (HTRF), which measures phosphorylation of a peptide substrate. The LANCER Ultra kinase assay (PerkinElmer) uses a ULight™-labeled EIF4E-binding protein 1 (THR37/46) peptide (DYSTTPGGTLFSTTPGTRI (SEQ ID NO: 1)) substrate and a Europium-labeled anti-phospho-4E-BP1 antibody (CDK2, CDK1, CDK4, CDK6, CDK9, CDK12, CDK13) or ULight™-labeled Myelin Basic Protein peptide (VTPRTPPP (SEQ ID NO: 2)) substrate and a Europium-labeled anti-phospho-MBP antibody (CDK7). Each CDK enzyme activity assays utilized human CDK co-expressed as N-terminal GST-tagged protein with its full length cyclin partner using a baculovirus expression system.
# Enzyme was pre-incubated with compounds and 1 mM ATP for 60 minutes (CDK 1, 2, 4, 6, 9, 7, 12, 13) prior to the addition of ATP and Ulight-peptide (1 mM and 50 nM final, respectively), in assay buffer containing 50 mM HEPES pH 7.5, 1 mM EGTA, 10 mM MgCl2, 2 mM DTT, 0.05 mg/mL BSA, and 0.01% Tween 20. The reaction was then incubated for 120 minutes at 25° C. incubator. The reactions were stopped by the addition of EDTA and Europium labeled antibody, for a final concentration of 15 mM and 0.5-1.5 nM, respectively. HTRF signals were read after 15-120 minutes. A ratio of fluorescence transferred to the labeled substrate (665 nm) relative to fluorescence of the Europium donor (620 nm) represents the extent of phosphorylation. Ratios for treated wells were normalized to DMSO only (100% activity) and no enzyme (0% activity) controls. Normalized data was analyzed using a three or four parameter dose response curve to determine IC50 for each compound and are shown in Table B. Control reference inhibitors were included on each plate.
row,Structure (SMILES),IC50 [nM]
1,"C=CC(=O)Nc1cc2nc(N3C[C@H](O)C[C@@H](Nc4ncc(C#N)cn4)C3)n(C)c2cc1C [Example 147, N-(2-((3R,5R)-3-((5-Cyanopyrimidin-2-yl)amino)-5-hydroxypiperidin-1-yl)-1,6-dimethyl-1H-benzo[d]imidazol-5-yl)acrylamide]",50 to 500
2,"COCC#CC(=O)Nc1cc2nc(N3C[C@H](F)C[C@@H](Nc4ncc(C(F)(F)F)cn4)C3)n(C)c2cc1C [Example 114, N-(2-((3R,5R)-3-Fluoro-5-((5-(trifluoromethyl)pyrimidin-2-yl)amino)piperidin-1-yl)-1,6-dimethyl-1H-benzo[d]imidazol-5-yl)-4-methoxybut-2-ynamide]",< 50
3,"C=CC(=O)N1CCC(c2nccn3c(N4CCC[C@@H](Nc5ncc(C(F)(F)F)cn5)C4)ncc23)CC1 [Example 110, (R)-1-(4-(3-(3-((5-(Trifluoromethyl)pyrimidin-2-yl)amino)piperidin-1-yl)imidazo[1,5-a]pyrazin-8-yl)piperidin-1-yl)prop-2-en-1-one]",50 to 500
4,"C=CC(=O)Nc1cc2nc(N3C[C@H](F)C[C@@H](Nc4ncc(C(F)(F)F)cn4)C3)n(C)c2cc1Br [Example 141, N-(6-Bromo-2-((3R,5R)-3-fluoro-5-((5-(trifluoromethyl)pyrimidin-2-yl)amino)piperidin-1-yl)-1-methyl-1H-benzo[d]imidazol-5-yl)acrylamide]",< 50
5,"COC/C=C/C(=O)Nc1cc2nc(N3C[C@H](F)C[C@@H](Nc4ncc(C(F)(F)F)cn4)C3)n(C)c2cc1C [Example 121, (E)-N-(2-((3R,5R)-3-Fluoro-5-((5-(trifluoromethyl)pyrimidin-2-yl)amino)piperidin-1-yl)-1,6-dimethyl-1H-benzo[d]imidazol-5-yl)-4-methoxybut-2-enamide]",50 to 500
